pIC50: −log10 of the molar value. Where two headings read alike, the source gives them in different places.
How the values were obtained:
Type in all cases: cell-based, human
[1] = system: SMN2 mRNA; experiment: Splicing RT-qPCR panel, SMN2 canonical junction (CJ) mRNA; settings: read-out: SMN2 CJ (decrease in CJ mRNA levels, IC50)
How it was run: (§1)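 A673 cells (DMEM, 10% FBS) or K562 cells (IMDM, 10% FBS) treated 24 h at 37 °C with an 11-point 3-fold dilution, top 10 uM, DMSO ≤0.25%. Canonical-junction mRNA quantified in lysates by RT-qPCR, normalised to GAPDH, GUSB or PPIA and to DMSO (2^−ΔΔCt), then converted to % response.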

[2] = system: Target C mRNA; experiment: Splicing RT-qPCR panel, Target C canonical junction (CJ) mRNA; settings: read-out: Target C CJ (decrease in CJ mRNA levels, IC50)
How it was run: as §1

[3] = system: HiBiT-tagged HTT protein; experiment: HiBiT protein abundance assay, HTT (K562 HiBiT knock-in); settings: HiBiT knock-in cells, 24 hours
How it was run: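 Endogenously HiBiT-tagged K562 knock-in lines treated 24 h at 37 °C with 10-point 3-fold dilutions (top 10 μM final, DMSO ≤0.25%) in IMDM+1% FBS. Lytic Nano-Glo luminescence normalized to DMSO and unmodified K562 controls; four-parameter fit gives 50%-abundance concentration (IC50).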

[4] = system: Target C; experiment: HiBiT protein abundance assay, Target C (K562 HiBiT knock-in); settings: HiBiT knock-in cells, 24 hours
How it was run: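 K562 HiBiT knock-in cells (10000/well) in IMDM + 1% FBS were treated for 24 h at 37° C. with a 10-point 3-fold dilution series (top 10 μM final), with DMSO ≤0.25%. Unmodified K562 served as baseline. HiBiT lytic luminescence was normalized to controls, and IC50 was interpolated at 50% from a four-parameter fit.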

| pIC50 ([1]; Homo sapiens) | pIC50 ([2]; Homo sapiens) | pIC50 [3] | pIC50 [4] | pIC50 [1] | pIC50 [2] | SMILES |
| --- | --- | --- | --- | --- | --- | --- |
| > 7.00 | 6.00 to 7.00 | 5.00 to 6.00 | 5.00 to 6.00 | – | – | Cc1c(O)c(-c2ccc3nc(N4CCC(N(C)C)CC4)cnc3n2)cc2cn(C)nc12 [Compound 198] |
| > 7.00 | 6.00 to 7.00 | > 7.00 | 6.00 to 7.00 | – | – | COc1nc(-c2cc3cn(C)nc3c(F)c2O)nc2ncc(N3CCC(N(C)C)CC3)cc12 [Compound 219, 5-{6-[4-(dimethylamino)piperidin-1-yl]-4-methoxypyrido[2,3-d]pyrimidin-2-yl}-7-fluoro-2-methylindazol-6-ol] |
| > 7.00 | 6.00 to 7.00 | > 7.00 | 6.00 to 7.00 | – | – | Cn1cc2cc(-c3cc(Cl)c4cc(N5CCNCC5)cnc4n3)c(O)c(F)c2n1 [Compound 155, 5-[4-chloro-6-(piperazin-1-yl)-1,8-naphthyridin-2-yl]-7-fluoro-2-methylindazol-6-ol] |
| > 7.00 | 5.00 to 6.00 | 6.00 to 7.00 | 6.00 to 7.00 | – | – | CNC1CCN(c2cnc3nc(-c4cc5cn(C)nc5c(C)c4O)nc(OC)c3c2)C1 (stereo not drawn) [Compound 161, 5-{4-methoxy-6-[3-(methylamino)pyrrolidin-1-yl]pyrido[2,3-d]pyrimidin-2-yl}-2,7-dimethylindazol-6-ol] |
| > 7.00 | 6.00 to 7.00 | 6.00 to 7.00 | 6.00 to 7.00 | – | – | Cn1cc2cc(-c3cnc4nc(N5CCC(NC6CC6)C5)ccc4n3)c(O)c(F)c2n1 (stereo not drawn) [Compound 178, 5-[6-[3-(cyclopropylamino)pyrrolidin-1-yl]pyrido[2,3-b]pyrazin-2-yl]-7-fluoro-2-methyl-indazol-6-ol] |
| > 7.00 | 5.00 to 6.00 | 6.00 to 7.00 | 6.00 to 7.00 | – | – | CNC1CCN(c2cnc3nc(-c4cc5cn(C)nc5cc4O)cc(Cl)c3c2)C1 (stereo not drawn) [Compound 213, 5-{4-chloro-6-[3-(methylamino)370pyrrolidine-1-yl]-1,8-naphthyridin-2-yl}-2-methylindazol-6-ol] |
| > 7.00 | > 7.00 | > 7.00 | > 7.00 | – | – | CN[C@@H]1CCN(c2cnc3nc(-c4cc5cn(C)nc5c(F)c4O)cc(Cl)c3c2)C1 [Compound 271] |
| > 7.00 | 5.00 to 6.00 | 6.00 to 7.00 | 5.00 to 6.00 | – | – | C[C@@H]1CN(c2cnc3nc(-c4cc5cn(C)nc5cc4O)cc(Cl)c3c2)C[C@H](C)N1 [Compound 208] |
| > 7.00 | 6.00 to 7.00 | 6.00 to 7.00 | 6.00 to 7.00 | – | – | CNC1CCN(c2cnc3nc(-c4cc(F)c5nc(C)cn5c4)ccc3c2)C1 (stereo not drawn) [Compound 100, 1-(7-{8-fluoro-2-methylimidazo[1,2-a]pyridin-6-yl}-1,8-naphthyridin-3-yl)-N-methylpyrrolidin-3-amine] |
| > 7.00 | < 5.00 | 5.00 to 6.00 | < 5.00 | – | – | COc1nc(-c2cc3cn(C)nc3c(C)c2O)nc2ncc(N3CCC(N(C)C)CC3)cc12 [Compound 163, 5-{6-[4-(dimethylamino)piperidin-1-yl]-4-methoxypyrido[2,3-d]pyrimidin-2-yl}-2,7-dimethylindazol-6-ol] |
| > 7.00 | 5.00 to 6.00 | 6.00 to 7.00 | 6.00 to 7.00 | – | – | C[C@H]1CN(c2cnc3nc(-c4cc5cn(C)nc5cc4O)cc(Cl)c3c2)C[C@H](C)N1 [Compound 242] |
| > 7.00 | 5.00 to 6.00 | 6.00 to 7.00 | 5.00 to 6.00 | – | – | CC1CN(c2cnc3nc(-c4cc(F)c5nn(C)cc5c4)cc(Cl)c3c2)CCN1 (stereo not drawn) [Compound 203, 4-chloro-2-(7-fluoro-2-methyl-2H-indazol-5-yl)-6-(3-methylpiperazin-1-yl)-1,8-naphthyridine 2,2,2-trifluoroacetate] |
| > 7.00 | 6.00 to 7.00 | < 5.00 | 5.00 to 6.00 | – | – | Cc1c(O)c(-c2cc(-c3nnc[nH]3)c3cc(N4C[C@@H](C)N[C@@H](C)C4)cnc3n2)cc2cn(C)nc12 [Compound 261, 5-{6-[(3R,5S)-3,5-dimethylpiperazin-1-yl]-4-(4H-1,2,4-triazol-3-yl)-1,8-naphthyridin-2-yl}-2,7-dimethylindazol-6-ol] |
| < 5.00 | < 5.00 | 5.00 to 6.00 | 5.00 to 6.00 | – | – | Cc1c(O)c(-c2cc(-c3ccccn3)c3cc(N4C[C@@H](C)N[C@@H](C)C4)cnc3n2)cc2cn(C)nc12 [Compound 217, 5-{6-[(3R,5S)-3,5-dimethylpiperazin-1-yl]-4-(pyridin-2-yl)-1,8-naphthyridin-2-yl}-2,7-dimethylindazol-6-ol] |
| > 7.00 | 5.00 to 6.00 | 6.00 to 7.00 | 6.00 to 7.00 | – | – | Cn1cc2cc(-c3cc(Cl)c4cc(N5CCNCC5)cnc4n3)c(O)cc2n1 [Compound 102, 5-[4-chloro-6-(piperazin-1-yl)-1,8-naphthyridin-2-yl]-2-methylindazol-6-ol] |
| > 7.00 | 6.00 to 7.00 | > 7.00 | 6.00 to 7.00 | – | – | CN(C)[C@H]1CCN(c2cnc3nc(-c4cc5cn(C)nc5c(F)c4O)cc(Cl)c3c2)C1 [Compound 221] |

More lines, now with the values behind:

| SMILES | pIC50 ([1]; Homo sapiens) | pIC50 ([2]; Homo sapiens) | pIC50 [3] | pIC50 [4] | pIC50 [1] | pIC50 [2] |
| --- | --- | --- | --- | --- | --- | --- |
| Cn1cc2cc(-c3ccc4cc(N5CC[C@@H](NC(C)(C)C)C5)cnc4n3)c(O)cc2n1 [Compound 199] | 6.00 to 7.00 | 5.00 to 6.00 | 5.00 to 6.00 | 5.00 to 6.00 | – | – |
| Cc1c(O)c(-c2cc(Cl)c3cc(N4CCNCC4)cnc3n2)cc2cn(C)nc12 [Compound 154, 5-[4-chloro-6-(piperazin-1-yl)-1,8-naphthyridin-2-yl]-2,7-dimethylindazol-6-ol] | > 7.00 | 5.00 to 6.00 | 6.00 to 7.00 | 6.00 to 7.00 | – | – |
| CN(C)[C@@H]1CCN(c2cnc3nc(-c4cc5cn(C)nc5c(F)c4O)cc(Cl)c3c2)C1 [Compound 220] | > 7.00 | 6.00 to 7.00 | > 7.00 | 6.00 to 7.00 | – | – |
| CNC1CCN(c2cnc3nc(-c4cc5cn(C)nc5c(C)c4O)cc(OC)c3n2)C1 (stereo not drawn) [Compound 194, 5-{8-methoxy-2-[3-(methylamino)360pyrrolidine-1-yl]pyrido[2,3-b]pyrazin-6-yl}-2,7-dimethylindazol-6-ol] | 6.00 to 7.00 | < 5.00 | 5.00 to 6.00 | 5.00 to 6.00 | – | – |
| Cn1cc2cc(-c3cc(Cl)c4cc(N5CCNCC5)cnc4n3)cc(F)c2n1 [Compound 103] | > 7.00 | 5.00 to 6.00 | 6.00 to 7.00 | 6.00 to 7.00 | – | – |
| Cn1cc2cc(-c3ccc4cc(N5CC[C@H](NC(C)(C)C)C5)cnc4n3)c(O)cc2n1 (single isomer, unassigned) [Compound 200] | > 7.00 | 5.00 to 6.00 | 5.00 to 6.00 | 5.00 to 6.00 | – | – |
| C[C@@H]1CN(c2cnc3nc(-c4cc(F)c5nn(C)cc5c4)cc(Cl)c3c2)C[C@@H](C)N1 [Compound 251] | > 7.00 | < 5.00 | 5.00 to 6.00 | 5.00 to 6.00 | – | – |
| Cc1c(O)c(-c2ccc3nc(N4CCNCC4)cnc3n2)cc2cn(C)nc12 [Compound 197, 2,7-dimethyl-5-[2-(piperazin-1-yl)pyrido[2,3-b]pyrazin-6-yl]indazol-6-ol] | > 7.00 | 6.00 to 7.00 | 6.00 to 7.00 | 6.00 to 7.00 | – | – |
| Cc1nc2c(C)c(O)c(-c3cnc4cc(N5CCC(NC6CC6)C5)ccc4n3)cc2o1 (stereo not drawn) [Compound 182, 6-[6-[3-(cyclopropylamino)pyrrolidin-1-yl]quinoxalin-2-yl]-2,4-dimethyl-1,3-benzoxazol-5-ol] | > 7.00 | 6.00 to 7.00 | > 7.00 | > 7.00 | – | – |
| CNC1CCN(c2cnc3nc(-c4cc5cn(C)nc5c(C)c4O)cc(Cl)c3n2)C1 (stereo not drawn) [Compound 193, 5-{8-chloro-2-[3-(methylamino)355pyrrolidine-1-yl]pyrido[2,3-b]pyrazin-6-yl}-2,7-dimethylindazol-6-ol] | > 7.00 | 6.00 to 7.00 | 6.00 to 7.00 | 6.00 to 7.00 | – | – |
| Cc1c(O)c(-c2cc(Cl)c3cc(N4C[C@@H](C)N[C@@H](C)C4)cnc3n2)cc2cn(C)nc12 [Compound 207, 5-{4-chloro-6-[(3R,5S)-3,5-dimethylpiperazin-1-yl]-1,8-naphthyridin-2-yl}-2,7-dimethylindazol-6-ol] | – | – | > 7.00 | 6.00 to 7.00 | > 7.00 | 6.00 to 7.00 |
| C[C@H]1CN(c2cnc3nc(-c4cc(F)c5nn(C)cc5c4)cc(Cl)c3c2)C[C@H](C)N1 [Compound 250] | > 7.00 | 6.00 to 7.00 | 6.00 to 7.00 | 6.00 to 7.00 | – | – |
| Cn1cc2cc(-c3cnc4cc(N5CC[C@@H](NC6CC6)C5)ccc4n3)c(O)c(F)c2n1 [Compound 177, 5-[6-[(3R)-3-(cyclopropylamino)318quinoxaline-1-yl]318quinoxaline-2-yl]-7-fluoro-2-methyl-indazol-6-ol] | > 7.00 | > 7.00 | > 7.00 | > 7.00 | – | – |
| Cn1cc2cc(-c3cc(Cl)c4cc(N5CCNC(C6CC6)C5)cnc4n3)cc(F)c2n1 (stereo not drawn) [Compound 209, 4-chloro-6-(3-cyclopropylpiperazin-1-yl)-2-(7-fluoro-2-methylindazol-5-yl)-1,8-naphthyridine] | > 7.00 | 5.00 to 6.00 | 6.00 to 7.00 | 5.00 to 6.00 | – | – |

From patent US20250326748A1, “COMPOUNDS AND METHODS FOR MODULATING SPLICING” (REMIX THERAPEUTICS INC., priority 2022, published 2025)
